From EP4785795A1 (priority 2023, dated 2025)

Test system: Aspergillus flavus
Type: cell-based

Structure (SMILES) | aflatoxin production inhibiting activity | aflatoxin production inhibiting activity relative to the natural product cyclo (L-Ala-Gly) (based on the IC50 (concentration that reduces the amount of aflatoxin B1 to 1/2), 25°C, 4 days)
O=C1CNC(=O)CN1 [cyclo (Gly-Gly)] | did not exhibit sufficient aflatoxin production inhibiting activity | –
C[C@H]1NC(=O)CNC1=O [cyclo (D-Ala-Gly)] | did not exhibit sufficient aflatoxin production inhibiting activity | –
CC[C@@H]1NC(=O)CNC1=O [cyclo (L-Abu(2)-Gly)] | extremely excellent aflatoxin production inhibiting activity | 75 fold
